For assay [1], the target named is T1, Aldehyde dehydrogenase 1A1 (Homo sapiens, UniProt P00352).
T1 sequence (P00352 whole entry): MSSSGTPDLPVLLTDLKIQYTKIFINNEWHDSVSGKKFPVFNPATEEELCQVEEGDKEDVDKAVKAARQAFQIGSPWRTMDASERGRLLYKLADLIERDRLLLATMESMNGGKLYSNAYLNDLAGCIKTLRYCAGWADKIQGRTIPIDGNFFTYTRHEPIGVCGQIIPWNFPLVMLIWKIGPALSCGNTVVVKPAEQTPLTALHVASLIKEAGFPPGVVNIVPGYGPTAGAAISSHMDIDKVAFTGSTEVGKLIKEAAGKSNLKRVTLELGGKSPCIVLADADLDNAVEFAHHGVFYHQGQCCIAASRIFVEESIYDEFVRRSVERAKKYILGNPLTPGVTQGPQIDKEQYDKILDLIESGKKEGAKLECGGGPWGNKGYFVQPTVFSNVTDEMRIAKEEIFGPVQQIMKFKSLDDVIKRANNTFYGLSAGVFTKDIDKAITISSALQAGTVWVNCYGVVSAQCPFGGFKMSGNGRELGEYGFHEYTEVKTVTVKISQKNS
As to the kind of experiment: Inhibition of ALDH1A1 (unknown origin).

In assay [2] the target is T2, Aldehyde dehydrogenase 1A1 (Homo sapiens) (UniProt P00352).
T2 sequence (whole entry): T1 sequence (P00352 whole entry)
The assay can be described thus: Inhibition of human ALDH1A1 assessed as fluorescent enhancement checked in presence of NAD+ by fluorescence based assay.

Assay [3] deals with T1, Aldehyde dehydrogenase 1A1. The assay can be described thus: Inhibition of human ALDH1A1 using propionaldehyde as substrate in presence of NAD+ by UV-visible spectrophometric analysis.
A further assay has as its system TOV21G. As to the kind of experiment: Anticancer activity against human TOV-21G-RT cells assessed as inhibition of cell growth. In kind it is functional, cell-based.
For another assay, the system named is NCI/ADR-RES. As to the kind of experiment: cells. The note with it: Homo sapiens.
Another assay has as its system A549. The assay can be described thus: Anticancer activity against human A549 cells assessed as inhibition of cell growth by MTT assay. In kind it is functional, cell-based.
For assay [4], the target named is T1, Aldehyde dehydrogenase 1A1. As to the kind of experiment: Inhibition of human ALDH1A1 expressed in Escherichia coli BL21(DE3) pLys cell in presence of NAD+ by fluorescence based assay.
The target of assay [5] is T3, Retinaldehyde dehydrogenase 3 (Homo sapiens, UniProt P47895).
T3 sequence (P47895 whole entry): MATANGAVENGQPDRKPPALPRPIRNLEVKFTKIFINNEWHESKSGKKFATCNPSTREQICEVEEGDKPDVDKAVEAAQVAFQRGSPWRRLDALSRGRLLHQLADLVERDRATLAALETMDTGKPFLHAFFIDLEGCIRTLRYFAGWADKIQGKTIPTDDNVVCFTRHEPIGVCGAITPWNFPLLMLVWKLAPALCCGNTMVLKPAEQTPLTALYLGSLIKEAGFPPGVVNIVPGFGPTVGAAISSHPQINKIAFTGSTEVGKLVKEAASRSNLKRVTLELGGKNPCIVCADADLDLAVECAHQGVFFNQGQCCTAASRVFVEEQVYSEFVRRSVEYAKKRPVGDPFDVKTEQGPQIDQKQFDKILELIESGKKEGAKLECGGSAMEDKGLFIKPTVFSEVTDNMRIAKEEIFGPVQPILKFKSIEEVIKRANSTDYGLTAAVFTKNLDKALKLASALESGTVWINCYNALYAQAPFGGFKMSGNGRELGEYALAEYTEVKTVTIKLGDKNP
As to the kind of experiment: Inhibition of human ALDH1A3 expressed in Escherichia coli BL21(DE3) pLys cell in presence of NAD+ by fluorescence based assay.

In assay [1], `CCC(SC1=Nc2ccccc2C2=NC(CC(C)C)C(=O)N12)C(=O)Nc1ccccc1` (centres undefined) gave a concentration for half-maximal inhibition (IC50) of 570 nM. As to `Cc1cc(C=O)ccc1-c1c2cc(F)c(=O)cc-2oc2cc(O)c(F)cc12`, the Activity in assay [2] was determined as 20. On to `CC(C)CCn1c(CN2CCN(C(N)=O)CC2)nc2c1c(=O)n(C)c(=O)n2C`, for which, in assay [3], the IC50 is 210 nM. On to `COc1cccc2c1C(=O)c1c(O)c3c(c(O)c1C2=O)C[C@@](O)(C(=O)CO)C[C@@H]3O[C@H]1C[C@H](N)[C@H](O)[C@H](C)O1` [DOXORUBICIN], for which the IC50 was found to be 373 nM in the assay on TOV21G and 206 nM in the assay on NCI/ADR-RES. Take `CCCCCC(=O)N1C[C@@H](CCl)c2c1ccc1ccccc21`: in the assay on A549, the IC50 worked out at 28 nM. The compound `CCC(SC1=Nc2ccccc2C2=NC(C(C)C)C(=O)N12)C(=O)Nc1ccccc1` (centres undefined) registered an IC50 in assay [1] of 440 nM. For the compound `O=C(O)CN1C(=O)S/C(=C/c2ccc(OCc3nc4ccccc4c(=O)n3-c3ccccc3)cc2)C1=O`, the IC50 is 5400 nM in assay [4] and 23000 nM in assay [5]. Turning to `CCC(SC1=Nc2ccccc2C2=NC(C(C)CC)C(=O)N12)C(=O)N1CCc2ccccc21` (centres undefined), the IC50 in assay [1] is 390 nM. On to `CCC(SC1=Nc2ccccc2C2=NC(C(C)C)C(=O)N12)C(=O)N1CCc2ccccc21` (centres undefined), for which the IC50 in assay [1] is 840 nM. As to `CCC(SC1=Nc2ccccc2C2=NC(CC(C)C)C(=O)N12)C(=O)N1CCc2ccccc21` (centres undefined), the IC50 in assay [1] was determined as 1180 nM.

With `CC(=O)O[C@H]1C(=O)[C@@]2(C)[C@H]([C@H](OC(=O)c3ccccc3)[C@]3(O)C[C@H](OC(=O)[C@H](O)[C@@H](NC(=O)c4ccccc4)c4ccccc4)C(C)=C1C3(C)C)[C@]1(OC(C)=O)CO[C@@H]1C[C@@H]2O` [PACLITAXEL], the IC50 in the assay on TOV21G came to 264 nM; in the assay on NCI/ADR-RES, 181 nM.

(Values after ChEMBL document CHEMBL5149964, “Discovery and development of selective aldehyde dehydrogenase 1A1 (ALDH1A1) inhibitors” (Eur J Med Chem, 2021).)
